Test system: P3H1 within the PCP complex
Assay: 2-OG dependent oxygenase activity
Type: biochemical, human
Conditions: Succinate-Glo assay, Fig. 1g, Fig. 3f, Supplementary Fig. 1f

Substance | 2OG-Fe (II) oxygenase / P3H1 activity, in words | 2OG-Fe (II) oxygenase / P3H1 activity, in words (listed as PPIB^R95A) | 2OG-Fe (II) oxygenase / P3H1 activity, in words (listed as R95A)
PCP ternary complex: low molecular weight elution fractions corresponding to the PCP ternary complex | inhibited upon depletion of ferrous ions |  | 
PCP-PPIBR95A: PCP complex with PPIB enzymatic mutation at the PI-site, R95A |  | elevated P3H1 activities | enhancing P3H1 activities
cyclosporin A [CsA, reference compound] | hydroxylation enhancement was absent |  | 
peak HW: high molecular weight elution fractions corresponding to the PCP dual-ternary complex | slightly lower P3H1 activity |  | 
